Test system: mouse breast tumor 4T1 cells
Experiment: Wound-healing assay, serum-induced migration of 4T1 cells
Format: cell-based
Conditions: 2 μM
Method: Cells. Mouse 4T1 mammary tumor cells and human MDA-MB-231 breast tumor cells were obtained from ATCC and have been described previously (Shan et al. 2005, Yang et al. 2005). 4T1 cells were cultured in RPMI 1640 medium supplemented with 10% FBS. MDA-MB-231 cells were cultured in DMEM supplemented with 10% FBS. Wound-healing assay. The wound-healing assay involves observing whether confluent cells can migrate across a scrape or wound in the cell layer. Cell migration assays were performed as described previously (Yang et al. 2005, Shan et al 2006). Tumor cells were plated in a 24-well plate coated with gelatin in standard media. After the cells grew to confluence, wounds were made in the confluent layer of cell using a sterile instrument such as a sterile pipette tip. The cells were washed with Phosphate Buffered Saline (PBS) or other sterile solutions and then the migration was induced by adding medium supplemented with 10% FBS. When the wound for the positive control closed, cells were fixed with 3.7% formaldehyde and stained with crystal violet staining solution. […] Photographs several random regions of the filter facing the second chamber are taken and the number of cells counted to calculate the average number of cells that had transmigrated.

SMILES: COC1C=CCCCCC(=O)CCC(C)=CC(C)C1O (stereo not shown) [macroketone, Migrastatin ketone]
- inhibition of serum-induced migration (wound-healing): inhibited the migration

Reference: patent publication US20100297109A1, “METHODS FOR INHIBITING FASCIN” (Cornell University, priority 2007, published 2010)
